How the values were obtained:
[1] = binding assay using an avidin-biotin complex (binding affinity of zirconia-binding peptide); details: biotin-labeled peptide, 100 nM to 1 μM, room temperature 15 hours
Source text: (§1) In order to examine the binding affinities of the peptides synthesized in Example 1 and Comparative Examples 1 and 2, the peptides were labeled with biotin. Each of the synthesized peptide domains was biotinylated using EZ-Link Sulfo-NHS-Biotin (Pierce Biotechnology, USA) according to the manufacturer's instruction, and unbound byproducts were removed by ultrafiltration that is a membrane separation method based on a pressure difference. The molecular weights of the synthesized products were measured by mass spectrometry. The synthesized products were analyzed and purified by reverse phase liquid chromatography. For analysis, a C18 column having a diameter of 4.6 mm was used, and 0.1% TFA/H2O and 0.092% TFA/acetonitrile were flushed onto the column at a rate of 1 ml/min with a gradient of 0-60% for 30 minutes. The wavelength of the UV detector used was 220 nm. For purification, a column having a diameter of 2.2 cm was used, and a flow rate of 20 ml/min and the solvent and detection wavelength as described above were used. Only the biotin-labeled peptide fraction was collected, and concentrated using a rotary evaporator to remove the solvent, followed by freeze-drying.
To measure the binding affinity of the zirconia-binding peptide, a binding assay using an avidin-biotin complex was performed. Specifically, one zirconia disc was placed in each well of a 12-well polystyrene plate, and then blocked with a blocking buffer (0.1 M NaHCO3 (pH 8.6), 5 mg/ml BSA, 0.02% NaN3 (optional), filter sterilize) for at least one hour. Next, the blocking buffer was discarded, and each zirconia disc was strongly washed six times or more with a washing buffer (TBS+0.1% [v/v] Tween-20), after which 200 μl of each of the zirconia-binding peptide Zr-BP (SEQ ID NO: 1) of Example 1 and the peptides Zr-BPC (SEQ ID NO: 2), PL1 (SEQ ID NO: 3) and PL2 (SEQ ID NO: 4) of Comparative Examples 1 and 2, which were biotin-labeled, synthesized, separated and purified in Example 3-1, was dispensed to the surface of each zirconia disc at a concentration ranging from 100 nM to 1 μM. Each zirconia disc was incubated at room temperature for 15 hours, and then washed strongly with a washing buffer, and 200 μl of a 1:500 dilution of ExtrAvidin-peroxidase (Cat. #E2886, Sigma-Aldrich, USA) in a blocking buffer was dispensed to the surface of each zirconia disc. Each zirconia disc was incubated at room temperature for 1 hour, and then washed strongly with a washing buffer, after which 200 μl of a substrate solution (2,2′-AZINO-BIS, Cat. #A3219, Sigma-Aldrich, USA) was dispensed to the surface of each zirconia disc and allowed to react at room temperature for 20 minutes so as to develop color. Each zirconia disc was treated with 200 μl of 1% SDS solution to stop the reaction, and the absorbance at 405 nm was measured.

[2] = binding assay using an avidin-biotin complex (maximum binding amount per zirconia disc)
Source text: as §1
To examine the maximum binding amount of the zirconia-binding peptide Zr-BP (SEQ ID NO: 1) per unit area of the zirconia disc surface, a binding assay using a avidin-biotin complex was performed. Specifically, one zirconia disc was placed in each well of a 12-well polystyrene plate, and then blocked with a blocking buffer (0.1 M NaHCO3 (pH 8.6), 5 mg/ml BSA, 0.02% NaN3 (optional), filter sterilize) for at least one hour. […] Each zirconia disc was treated with 200 μl of 1% SDS solution to stop the reaction, and the absorbance at 405 nm was measured.

| absorbance value at 405 nm (binding to the zirconia disc surface) ([1]; FIG. 2) | maximum amount of zirconia-binding peptide bound to the surface of one zirconia disc ([2]; back-calculation from molecular weight and dispensing amount, disc diameter 15.5 mm) [µg] | concentration showing the maximum absorbance value ([2]; biotin-labeled peptide, 100 nM to 40 mM, 200 μl per disc, room temperature 15 hours, FIG. 3) [mM] | zirconia-binding peptide fixed per mm^2 of the zirconia disc surface ([2]; per mm^2, disc diameter 15.5 mm) | Sequence | absorbance value at 405 nm (binding to the zirconia disc surface) ([1]; FIG. 1) |
| --- | --- | --- | --- | --- | --- |
| – | – | – | – | VSAAGTKASPAV (Zr-BPC) | binding affinity thereof is reduced |
| do not bind to the zirconia disc surface | – | – | – | IGNSFSFPAVYR (PL1) | – |
| do not bind to the zirconia disc surface | – | – | – | LRLDVDRAISLL (PL2) | – |

| Sequence | absorbance value at 405 nm (binding to the zirconia disc surface) ([1]; FIG. 2) | maximum amount of zirconia-binding peptide bound to the surface of one zirconia disc ([2]; back-calculation from molecular weight and dispensing amount, disc diameter 15.5 mm) [µg] | concentration showing the maximum absorbance value ([2]; biotin-labeled peptide, 100 nM to 40 mM, 200 μl per disc, room temperature 15 hours, FIG. 3) [mM] | zirconia-binding peptide fixed per mm^2 of the zirconia disc surface ([2]; per mm^2, disc diameter 15.5 mm) | absorbance value at 405 nm (binding to the zirconia disc surface) ([1]; FIG. 1) |
| --- | --- | --- | --- | --- | --- |
| VSPFGTKWSPFV (Zr-BP) | higher than those of the peptides (PL1 and PL2) of Comparative Example 2 | 622.8 | 2 | about 3.3 μg | higher than that of the peptide Zr-BPC of Comparative Example 1 |
